Data reported in article PMC4894417, “Quantitative High-Throughput Profiling of Environmental Chemicals and Drugs that Modulate Farnesoid X Receptor” (Scientific Reports, 2014).
Like-named read-outs stand apart in the source and are kept apart here. One block for each compound: values may come before it.

What was measured:
human FXR [1] = target: T1, human FXR (Homo sapiens, UniProt Q96RI1); test: FXR-bla reporter gene assay, agonist mode (qHTS); details: for FXR-bla, agonist EC50: Table 1, confirmed compounds, mean ± SD of 3 experiments
T1 sequence (Q96RI1 with tags, fused parts or gaps limits assumed): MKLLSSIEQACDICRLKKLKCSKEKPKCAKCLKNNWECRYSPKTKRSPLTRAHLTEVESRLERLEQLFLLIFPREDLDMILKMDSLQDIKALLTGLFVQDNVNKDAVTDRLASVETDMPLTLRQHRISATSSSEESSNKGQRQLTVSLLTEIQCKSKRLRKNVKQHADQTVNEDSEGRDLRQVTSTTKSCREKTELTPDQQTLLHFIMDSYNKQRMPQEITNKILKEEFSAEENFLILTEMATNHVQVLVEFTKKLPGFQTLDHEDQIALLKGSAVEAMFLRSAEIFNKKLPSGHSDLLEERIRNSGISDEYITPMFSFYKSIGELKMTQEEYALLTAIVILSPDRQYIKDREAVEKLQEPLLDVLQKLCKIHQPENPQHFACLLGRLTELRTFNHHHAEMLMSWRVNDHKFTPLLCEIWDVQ

[2] = test system: FXR-UAS-bla HEK293T cells; test: Cell viability assay (CellTiter Glo) in the same well as FXR-bla; details: for Cell viability IC50: Table 1, mean ± SD of 3 experiments
human FXR [3] = target: T1, human FXR; test: FXR-bla reporter gene assay, antagonist mode (CDCA-induced transactivation); details: for FXR antagonist activity: FXR-bla assay
[4] = test system: FXR-UAS-bla HEK293T cells
FXR-LBD [5] = target: T2, FXR-LBD (Homo sapiens, UniProt Q96RI1); test: FXR TR-FRET coactivator recruitment assay, agonist mode; assay type: biochemical; details: Table 1; coactivator SRC2-2 recruitment
T2 construct: The glutathione S-transferase (GST)-tagged FXR-LBD protein; purchased Life Technologies
T2 sequence (Q96RI1 262-486 limits assumed): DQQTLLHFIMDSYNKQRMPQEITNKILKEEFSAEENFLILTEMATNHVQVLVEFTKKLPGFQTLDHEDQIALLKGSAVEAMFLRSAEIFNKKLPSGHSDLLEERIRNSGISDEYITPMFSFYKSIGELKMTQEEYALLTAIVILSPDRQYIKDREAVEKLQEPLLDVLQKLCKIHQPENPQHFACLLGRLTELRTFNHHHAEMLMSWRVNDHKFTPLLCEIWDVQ

FXR-LBD [6] = target: T2, FXR-LBD; test: FXR TR-FRET coactivator recruitment assay, antagonist mode (50 μM CDCA); assay type: biochemical
vitamin D receptor (VDR) = vitamin D receptor (VDR) (Homo sapiens, UniProt P11473); test: VDR-bla reporter gene assay (agonist and antagonist modes)
Sequence of vitamin D receptor (VDR) (P11473 with tags, fused parts or gaps limits assumed): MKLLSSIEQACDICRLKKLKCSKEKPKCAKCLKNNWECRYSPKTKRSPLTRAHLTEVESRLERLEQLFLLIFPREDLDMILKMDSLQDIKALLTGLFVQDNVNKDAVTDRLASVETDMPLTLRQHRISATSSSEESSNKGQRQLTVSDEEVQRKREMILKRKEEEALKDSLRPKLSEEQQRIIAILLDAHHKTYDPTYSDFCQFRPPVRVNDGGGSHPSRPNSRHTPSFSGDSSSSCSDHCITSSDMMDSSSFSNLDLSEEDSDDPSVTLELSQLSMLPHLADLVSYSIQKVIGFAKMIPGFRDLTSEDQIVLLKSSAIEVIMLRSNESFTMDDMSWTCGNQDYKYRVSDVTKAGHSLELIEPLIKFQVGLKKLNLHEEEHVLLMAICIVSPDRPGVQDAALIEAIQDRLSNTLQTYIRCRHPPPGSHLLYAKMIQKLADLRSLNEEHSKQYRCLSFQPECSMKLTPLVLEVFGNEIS

[7] = target: peroxisome proliferator-activated receptor gamma (PPARγ) (Homo sapiens, UniProt P37231); test: PPARγ-bla reporter gene assay (agonist and antagonist modes)
Sequence of peroxisome proliferator-activated receptor gamma (PPARγ) (P37231 with tags, fused parts or gaps limits assumed): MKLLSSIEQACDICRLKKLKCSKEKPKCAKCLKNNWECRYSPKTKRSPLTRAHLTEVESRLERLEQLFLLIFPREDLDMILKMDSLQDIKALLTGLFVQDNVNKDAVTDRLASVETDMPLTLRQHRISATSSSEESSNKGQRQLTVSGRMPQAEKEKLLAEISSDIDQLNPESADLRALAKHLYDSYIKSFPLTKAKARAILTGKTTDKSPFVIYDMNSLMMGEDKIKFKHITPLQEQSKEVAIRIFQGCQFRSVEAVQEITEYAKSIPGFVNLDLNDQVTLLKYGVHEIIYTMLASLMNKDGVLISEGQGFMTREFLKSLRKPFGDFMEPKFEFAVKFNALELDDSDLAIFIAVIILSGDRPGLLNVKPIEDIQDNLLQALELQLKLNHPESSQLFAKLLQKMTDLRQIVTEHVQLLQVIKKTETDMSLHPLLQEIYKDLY

[8] = Table S1, primary screening, 50 µM CDCA
[9] = read-out: FXR agonist mode EC50, Table S1, primary screening

Compound: CC(C)[C@H](Nc1ccc(C(F)(F)F)cc1Cl)C(=O)OC(C#N)c1cccc(Oc2ccccc2)c1 (stereo partly shown) [Fluvalinate]
FXR agonist mode EC50 (human FXR [1]; Table S1, primary screening): Inactive
Cytotoxicity IC50 ([2]; Table S1, primary screening): Inactive
FXR antagonist mode Efficacy (human FXR [3]): 53 ± 3
IC50 (human FXR [3]; FXR antagonist mode IC50): 30.3 ± 12 µM

Compound: O=c1c(-c2ccc(O)cc2)coc2cc(O)cc(O)c12 [Genistein]
Cytotoxicity IC50 [4]: Inactive
FXR agonist mode EC50 (human FXR [1]; Table S1, primary screening): Inactive
IC50 (human FXR [3]; FXR antagonist mode IC50): 22.9 ± 3.16 µM
FXR antagonist mode Efficacy (human FXR [3]; [8]): 57 ± 6%

FXR agonist mode EC50 (human FXR [1]; Table S1, primary screening): Inactive
IC50 (human FXR [3]): 15.5 ± 9.59 µM
FXR antagonist Efficacy (human FXR [3]; Table S3, 50 µM CDCA): -71 ± 10%
Compound: COC(=O)C1=C(C)NC(C)=C(C(=O)OC(C)(C)CN(C)CCC(c2ccccc2)c2ccccc2)C1c1cccc([N+](=O)[O-])c1 (stereo not shown) [Lercanidipine]
Cytotoxicity IC50 ([2]; Table S1, primary screening): Inactive

Compound: COCCOC(=O)C1=C(C)NC(C)=C(C(=O)OC(C)C)C1c1cccc([N+](=O)[O-])c1 (stereo not shown) [Nimodipine]
Cytotoxicity IC50 [4]: Inactive

FXR agonist mode EC50 (human FXR [1]; Table S1, primary screening): Inactive
IC50 (human FXR [3]): 32.6 ± 20.2 µM
FXR antagonist activity (human FXR [3]; CDCA-induced): antagonists
FXR antagonist mode Efficacy (human FXR [3]; [8]): 73 ± 29%
Compound: COC(=O)C1=C(C)NC(C)=C(C(=O)OCC(C)C)C1c1ccccc1[N+](=O)[O-] (stereo not shown) [Nisoldipine]
Cytotoxicity IC50 ([2]; Table S1, primary screening): Inactive

Compound: COC(=O)Nc1nc2ccc(C(=O)c3cccs3)cc2[nH]1 [Nocodazole]
FXR TR-FRET, agonist EC50 (FXR-LBD [5]): Inactive
FXR TR-FRET, antagonist IC50 (FXR-LBD [6]): Inactive
FXR-bla, agonist EC50 (human FXR [1]): Inactive
VDR activity (vitamin D receptor (VDR)): inhibiting β-lactamase expression
PPARγ activity [7]: inhibiting β-lactamase expression
Cell viability IC50 [2]: Inactive
FXR antagonist Efficacy (human FXR [3]): 54 ± 2%
FXR antagonist activity (human FXR [3]; CDCA-induced): inhibiting β-lactamase expression
IC50 (human FXR [3]; FXR-bla, antagonist IC50): 0.29 µM
IC50 (human FXR [3]; IC50, FXR-bla antagonist mode, primary screening, CDCA-induced): 0.32 µM

Compound: CCCCc1ccc2[nH]c(NC(=O)OC)nc2c1 [Parbendazole]
FXR agonist mode EC50 (human FXR [1]; Table S1, primary screening): Inactive
Cytotoxicity IC50 ([2]; Table S1, primary screening): Inactive
FXR antagonist mode Efficacy (human FXR [3]): 43 ± 3%
IC50 (human FXR [3]; FXR antagonist mode IC50): 0.16 ± 0.14 µM

Compound: CC(C)=CC1C(C(=O)OCc2cccc(Oc3ccccc3)c2)C1(C)C (stereo not shown) [Phenothrin]
FXR agonist mode EC50 (human FXR [1]; Table S1, primary screening): Inactive
Cytotoxicity IC50 ([2]; Table S1, primary screening): Inactive
FXR antagonist mode Efficacy (human FXR [3]): 27 ± 7
IC50 (human FXR [3]): 25.4 ± 11.8 µM

Compound: CO[C@H]1C[C@H](O[C@@H]2/C(C)=C/C[C@@H]3C[C@@H](C[C@]4(CC[C@H](C)[C@@H](C5CCCCC5)O4)O3)OC(=O)[C@@H]3C=C(C)/C(=N/O)[C@H]4OC/C(=C\C=C\[C@@H]2C)[C@]43O)O[C@@H](C)[C@@H]1O [Selamectin]
Cytotoxicity IC50 [4]: Inactive
FXR agonist Efficacy (human FXR [1]): 68 ± 5%
FXR agonist mode Efficacy (human FXR [1]): 68 ± 5%
EC50 (human FXR [1]; FXR agonist mode EC50): 5.98 ± 0.39 µM
FXR antagonist Efficacy (human FXR [3]): 45 ± 6%
FXR antagonist mode Efficacy (human FXR [3]): 45 ± 6%
IC50 (human FXR [3]; FXR antagonist mode IC50): 2.48 ± 0.82 µM

FXR TR-FRET, agonist EC50 (FXR-LBD [5]): Inactive
FXR TR-FRET, antagonist IC50 (FXR-LBD [6]; Table 1, in the presence of 50 μM CDCA): Inactive
FXR-bla, agonist EC50 (human FXR [1]): Inactive
IC50 (human FXR [3]): 0.1 ± 0.04 µM
FXR-bla, antagonist Efficacy (human FXR [3]; Table 1, inhibition as percent of positive control (guggulsterone), 50 μM CDCA): 57 ± 7%
FXR antagonist Efficacy (human FXR [3]; Table S3, 50 µM CDCA): 59 ± 2%
Compound: CC[C@]1(O)C[C@@H]2CN(CCc3c([nH]c4ccccc34)[C@@](C(=O)OC)(c3cc4c(cc3OC)N(C)[C@H]3[C@@](O)(C(=O)OC)[C@H](OC(C)=O)[C@]5(CC)C=CCN6CC[C@]43[C@@H]65)C2)C1 [Vinblastine]
Cell viability IC50 [2]: Inactive

Compound: AM580
FXR agonist mode Efficacy (human FXR [1]): 68 ± 37
FXR agonist activity (human FXR [1]; FXR-bla assay): selectively induced transactivation of FXR
EC50 (human FXR [1]; [9]): 45.4 ± 3.07 µM
Cytotoxicity IC50 ([2]; Table S1, primary screening): Inactive
FXR antagonist mode IC50 (human FXR [3]): Inactive

Compound: Emamectin
FXR agonist mode Efficacy (human FXR [1]): 56 ± 26%
EC50 (human FXR [1]; [9]): 24.6 ± 8.97 µM
Cytotoxicity Efficacy ([2]; Table S1, primary screening): 116 ± 14%
IC50 ([2]; read-out: Cytotoxicity IC50, Table S1, primary screening): 7.54 ± 1.29 µM
FXR antagonist mode Efficacy (human FXR [3]): 64 ± 19%
IC50 (human FXR [3]; read-out: FXR antagonist mode IC50): 5.81 ± 2.68 µM

EC50 [4]: 14 ± 1.6 µM
IC50 [4]: 14 ± 1.6 µM
FXR agonist mode Efficacy (human FXR [1]; Table S1, primary screening, CDCA 100%): 41 ± 1%
FXR agonist Efficacy (human FXR [1]; Table S3): 41 ± 1%
EC50 (human FXR [1]; [9]): 5.33 ± 0.35 µM
FXR antagonist mode Efficacy (human FXR [3]; [8]): 110 ± 6%
FXR antagonist Efficacy (human FXR [3]; Table S3, 50 µM CDCA): 110 ± 6%
IC50 (human FXR [3]; read-out: FXR antagonist mode IC50, Table S1, primary screening, 50 µM CDCA): 14.5 ± 0.98 µM
Compound: Eprinomectin B1a
Cytotoxicity Efficacy [4]: 108 ± 4%
